From patent publication US12110293B2, “Substituted triazolo quinoxaline derivatives” (GRÜNENTHAL GMBH, priority 2018, dated 2024)

Biological target: T1, glucocorticoid receptor (Homo sapiens, UniProt P04150)
T1 construct: expressed in transfected cells
T1 sequence (P04150 524-758 limits assumed): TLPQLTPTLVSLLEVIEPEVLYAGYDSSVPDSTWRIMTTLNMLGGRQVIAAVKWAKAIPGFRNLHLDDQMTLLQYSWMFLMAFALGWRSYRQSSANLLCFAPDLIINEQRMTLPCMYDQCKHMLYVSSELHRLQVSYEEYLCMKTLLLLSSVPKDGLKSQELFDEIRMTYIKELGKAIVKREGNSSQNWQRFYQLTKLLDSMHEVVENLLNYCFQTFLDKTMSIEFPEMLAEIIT
Test: Agonistic mode of action on the glucocorticoid receptor (CHO-Gal4/GR luciferase reporter cell line)
Format: cell-based
Details: range class observed in the agonistic assay or the antagonistic assay (CHO-Gal4/GR reporter cells); table does not say which mode applies per example
Description: Potential selective glucocorticoid receptor modulators of this intervention can be tested for modulation of the activity of the glucocorticoid receptor using cell-based assays. These assays involve a Chinese hamster ovary (CHO) cell line which contains fragments of the glucocorticoid receptor as well as fusion proteins. The glucocorticoid receptor fragments used are capable of binding the ligand (e.g. beclomethasone) to identify molecules that compete for binding with glucocorticoid receptor ligands. In more detail, the glucocorticoid receptor ligand binding domain is 25 fused to the DNA binding domain (DBD) of the transcriptionfactor GAL4 (GAL4 DBD-GR) and is stably integrated into a CHO cell line containing a GAL4-UAS-Luciferase reporter construct. […] After cell lysis the luminescence that is produced by luciferase after addition of the substrate is detected and EC50 or IC50 values can be calculated. Engagement of molecules which induce gene expression via glucocortocoid receptor binding to the DNA leads to expression of the luciferase gene under the control of the fusion protein GAL4 DBD-GR and therefore to a dose-dependent increase of the luminescence signal. Binding of molecules which repress beclomethasone-induced gene expression of the luciferase gene under the control of the fusion protein GAL4 DBD-GR leads to a dose-dependent reduction of the luminescence signal.
Biological Assays Agonistic Mode of Action on the Glucocorticoid Receptor
The reporter cell line CHO-Gal4/GR consisted of a Chinese hamster ovary (CHO) cell line (Leibniz Institute DSMZ—German Collection of Microorganisms and Cell CuItures GmbH: ACC-110) containing a firefly luciferase gene under the control of the GR ligand binding domain fused to the DNA binding domain (DBD) of GAL4 (GAL4 DBD-GR) stably integrated into CHO cells. This cell line was established by stable transfection of CHO cells with a GAL4-UAS-Luciferase reporter construct. In a subsequent step the ligand binding domain of the GR cloned into pIRES2-EGFP-GAL4 containing the DNA binding domain of GAL4 from pFA-AT2 was transfected. This fusion construct activated firefly luciferase expression under the control of a multimerized GAL4 upstream activation sequence (UAS). The signal of the emitted luminescence was recorded by the FLIPR^TETRA. This allowed for specific detection of ligand-induced activation of the GR and therefore for the identification of compounds with agonistic properties. The GAL4/UAS reporter was premixed with a vector that constitutively expressed Renilla luciferase, which served as an internal positive control for transfection efficiency.
The complete culture medium for the assay was: • DMEM F-12 (1:1) MIXTURE (LONZA cat. N°: BE04-687F/U1) 500 mL • 5 mL of 100 mM Sodium Pyruvate (LONZA cat. N°: BE12-115E) • 25 mL of 7.5% Sodium Bicarbonate (LONZA cat. N° BE17-613E) • 6.5 mL of 1 M Hepes (LONZA cat. N°: BE17-737E) • 5 mL of 100× Penicillin/Streptomycin (LONZA cat. N° DE17-602E) • 50 mL of Fetal Bovine Serum (Euroclone cat. N° ECS 0180L) • 0.25 mL of 10 mg/mL Puromycin (InvivoGen cat.: ant-pr-1) • 0.5 mL of 100 mg/mL Zeocin (InvivoGen cat.: ant-zn-1)
Cryo-preserved CHO-Gal4/GR cells were suspended in complete medium and 5000 cells/25 μl/well were seeded into the wells of 384-well polystyrene assay plates (Thermo Scientific, cat. #4332) and cultured at 37° C., 5% CO2 and 95% humidity. After 24 hours growth medium was carefully removed and replaced by 30 μl Opti-MEM (GIBCO, cat. #31985062) as assay buffer. To test the compounds an 8-point half-log compound dilution curve was generated in 100% DMSO starting from a 2 mM stock and compounds were then diluted 1:50 in Opti-MEM. 10 μl of compounds were then added to the wells containing 30 μl Opti-MEM resulting in a final assay concentration range from 10 μM to 0.003 μM in 0.5% DMSO. Compounds were tested at 8 concentrations in quadruplicate data points.

Row | Compound | IC50 or EC50 (agonist or antagonist mode not specified) [nM]
1 | Cc1c(-c2cc(F)cc3c(C)c[nH]c23)c(OC(F)(F)F)cc2c1-n1c(C)nnc1C(C)(C)N2 [Example 406, 8-(5-Fluoro-3-methyl-1H-indol-7-yl)-1,4,4,9-tetramethyl-7-(trifluoromethyloxy)-5H-[1,2,4]triazolo[4,3-a]quinoxaline] | 100 to 1000
2 | Cc1c(-c2cccc3c2ccn3CC(F)F)c(OC(F)F)cc2c1-n1c(C)nnc1C(C)(C)N2 [Example 384, 8-[1-(2,2-Difluoro-ethyl)-1H-indol-4-yl]-7-(difluoro-methoxy)-1,4,4,9-tetramethyl-5H-[1,2,4]triazolo[4,3-a]quinoxaline] | 1000 to 15000
3 | COCC(=O)n1ccc2c(-c3c(F)cc4c(c3F)-n3c(C)nnc3C(C)(C)N4)cccc21 [Example 213, 1-[4-(7,9-Difluoro-1,4,4-trimethyl-5H-[1,2,4]triazolo[4,3-a]quinoxalin-8-yl)-1H-indol-1-yl]-2-methoxy-ethanone] | < 100
4 | COCCn1ccc2c(-c3c(OC(F)F)cc4c(c3F)-n3c(C)nnc3C(C)(C)N4)cc(F)cc21 [Example 394, 7-(Difluoro-methoxy)-9-fluoro-8-[6-fluoro-1-(2-methoxy-ethyl)-1H-indol-4-yl]-1,4,4-trimethyl-5H-[1,2,4]triazolo[4,3-a]quinoxaline] | 1000 to 15000
5 | Cc1nnc2n1-c1c(cc(F)c(-c3cccc4c3cnn4S(=O)(=O)CC3CC3)c1F)NC2(C)C [Example 239, 8-[1-(Cyclopropyl-methylsulfonyl)-1H-indazol-4-yl]-7,9-difluoro-1,4,4-trimethyl-5H-[1,2,4]triazolo[4,3-a]quinoxaline] | 100 to 1000
6 | CC(=O)n1ccc2c(-c3c(F)cc4c(c3F)-n3c(C)nnc3C(C)(C)N4)cccc21 [Example 20, 1-(4-(7,9-difluoro-1,4,4-trimethyl-4,5-dihydro-[1,2,4]triazolo[4,3-a]quinoxalin-8-yl)-1H-indol-1-yl)ethanone] | 100 to 1000
7 | Cc1n[nH]c2c(-c3c(F)cc4c(c3C(F)F)-n3c(C)nnc3C(C)(C)N4)cccc12 [Example 367, 9-(Difluoro-methyl)-7-fluoro-1,4,4-trimethyl-8-(3-methyl-1H-indazol-7-yl)-5H-[1,2,4]triazolo[4,3-a]quinoxaline] | 100 to 1000
8 | COc1c(-c2cc(F)cc3c2cnn3S(C)(=O)=O)c(F)cc2c1-n1c(C)nnc1C(C)(C)N2 [Example 339, 7-Fluoro-8-(6-fluoro-1-methylsulfonyl-1H-indazol-4-yl)-9-methoxy-1,4,4-trimethyl-5H-[1,2,4]triazolo[4,3-a]quinoxaline] | 100 to 1000
9 | Cc1nnc2n1-c1c(cc(F)c(-c3cccc4c3ccn4CCNC(=O)OC(C)(C)C)c1F)NC2(C)C [Example 228, N-[2-[4-(7,9-Difluoro-1,4,4-trimethyl-5H-[1,2,4]triazolo[4,3-a]quinoxalin-8-yl)-1H-indol-1-yl]-ethyl]-carbarmic acid tert-butyl ester] | 1000 to 15000
10 | Cc1c[nH]c2c(-c3c(F)cc4c(c3C(F)F)-n3c(C)nnc3C(C)(C)N4)cc(F)cc12 [Example 302, 9-(Difluoro-methyl)-7-fluoro-8-(5-fluoro-3-methyl-1H-indol-7-yl)-1,4,4-trimethyl-5H-[1,2,4]triazolo[4,3-a]quinoxaline] | < 100
11 | Cc1nnc2n1-c1c(cc(F)c(-c3cccc4c3ccn4CCO)c1C(F)(F)F)NC2(C)C [Example 456, 2-[4-[7-Fluoro-1,4,4-trimethyl-9-(trifluoromethyl)-5H-[1,2,4]triazolo[4,3-a]quinoxalin-8-yl]-1H-indol-1-yl]-ethanol] | 100 to 1000
12 | Cc1nnc2n1-c1c(cc(F)c(-c3cccc4c3cnn4C3CC3)c1F)NC2(C)C [Example 243, 8-(1-Cyclopropyl-1H-indazol-4-yl)-7,9-difluoro-1,4,4-trimethyl-5H-[1,2,4]triazolo[4,3-a]quinoxaline] | 100 to 1000
13 | Cc1c(-c2cc(F)cc3c(C4CC4)c[nH]c23)c(F)cc2c1-n1c(C)nnc1C(C)(C)N2 [Example 33, 8-(3-cyclopropyl-5-fluoro-1H-indol-7-yl)-7-fluoro-1,4,4,9-tetramethyl-4,5-dihydro-[1,2,4]triazolo[4,3-a]quinoxaline] | < 100
14 | Cc1nnc2n1-c1c(cc(F)c(-c3cc(F)cc4c3ccn4S(C)(=O)=O)c1F)NC2(C)C [Example 3, 7,9-difluoro-8-(6-fluoro-1-(methylsulfonyl)-1H-indol-4-yl)-1,4,4-trimethyl-4,5-dihydro-[1,2,4]triazolo[4,3-a]quinoxaline] | < 100
15 | Cc1c[nH]c2c(-c3c(F)cc4c(c3C3CC3)-n3c(C)nnc3C(C)(C)N4)cccc12 [Example 463, 9-Cyclopropyl-7-fluoro-1,4,4-trimethyl-8-(3-methyl-1H-indol-7-yl)-5H-[1,2,4]triazolo[4,3-a] quinoxaline] | < 100
16 | CC#Cc1c[nH]c2c(-c3c(F)cc4c(c3F)-n3c(CC)nnc3C(C)(C)N4)cccc12 [Example 13, 1-ethyl-7,9-difluoro-4,4-dimethyl-8-(3-(prop-1-yn-1-yl)-1H-indol-7-yl)-4,5-dihydro-[1,2,4]triazolo[4,3-a]quinoxaline] | 100 to 1000
17 | Cc1c(-c2cc(F)cc3c(C)c[nH]c23)c(F)cc2c1-n1c(C)nnc1C(C)(C)N2 [Example 31, 7-fluoro-8-(5-fluoro-3-methyl-1H-indol-7-yl)-1,4,4,9-tetramethyl-4,5-dihydro-[1,2,4]triazolo[4,3-a]quinoxaline] | < 100
18 | Cc1nnc2n1-c1c(cc(F)c(-c3cccc4c(C5CC5)c[nH]c34)c1C(F)(F)F)NC2(C)C [Example 87, 8-(3-cyclopropyl-1H-indol-7-yl)-7-fluoro-1,4,4-trimethyl-9-(trifluoromethyl)-4,5-dihydro-[1,2,4]triazolo[4,3-a]quinoxaline] | 100 to 1000
19 | Cc1nnc2n1-c1c(cc(F)c(-c3ccc(F)c4[nH]ccc34)c1C(F)(F)F)NC2(C)C [Example 505, 7-Fluoro-8-(7-fluoro-1H-indol-4-yl)-1,4,4-trimethyl-9-(trifluoromethyl)-5H-[1,2,4]triazolo[4,3-a]quinoxaline] | 100 to 1000
20 | Cc1nnc2n1-c1c(cc(F)c(-c3cccc4cc[nH]c34)c1F)NC2(C)C [Example 9, 7,9-difluoro-8-(1H-indol-7-yl)-1,4,4-trimethyl-4,5-dihydro-[1,2,4]triazolo[4,3-a]quinoxaline] | 100 to 1000
21 | CCc1c(-c2cc(F)cc3c2ccn3CCO)c(F)cc2c1-n1c(C)nnc1C(C)(C)N2 [Example 44, 2-(4-(9-ethyl-7-fluoro-1,4,4-trimethyl-4,5-dihydro-[1,2,4]triazolo[4,3-a]quinoxalin-8-yl)-6-fluoro-1H-indol-1-yl)ethanol] | 100 to 1000
